From patent US8389011B2, “Pharmaceutical compositions of cholesteryl ester transfer protein inhibitors” (Bend Research, Inc., priority 2000, dated 2013)
Values after ≈ are worked out from the molar mass of the structure shown. Where two headings read alike, the source gives them in different places.

What was measured:
[1] = In vitro dissolution test, microcentrifuge method, in model fasted duodenal solution (MFDS); format: physicochemical
Protocol: The compositions comprising the CETP inhibitor and concentration-enhancing polymer provide enhanced concentration of the dissolved CETP inhibitor in in vitro dissolution tests. It has been determined that enhanced drug concentration in in vitro dissolution tests in Model Fasted Duodenal (MFD) solution or Phosphate Buffered Saline (PBS) is a good indicator of in vivo performance and bioavailability. An appropriate PBS solution is an aqueous solution comprising 20 mM sodium phosphate (Na2HPO4), 47 mM potassium phosphate (KH2PO4), 87 mM NaCl, and 0.2 mM KCl, adjusted to pH 6.5 with NaOH. An appropriate MFD solution is the same PBS solution wherein additionally is present 7.3 mM sodium taurocholic acid and 1.4 mM of 1-palmitoyl-2-oleyl-sn-glycero-3-phosphocholine. In particular, a composition of the present invention can be dissolution-tested by adding it to MFD or PBS solution and agitating to promote dissolution.
A typical in vitro test to evaluate enhanced drug concentration in aqueous solution can be conducted by (1) adding with agitation a sufficient quantity of control composition, typically the CETP inhibitor alone, to the in vitro test medium, typically MFD or PBS solution, to achieve equilibrium concentration of the CETP inhibitor; (2) adding with agitation a sufficient quantity of test composition (e.g., the CETP inhibitor and polymer) in an equivalent test medium, such that if all the CETP inhibitor dissolved, the theoretical concentration of CETP inhibitor would exceed the equilibrium concentration of the CETP inhibitor by a factor of at least 10, and preferably a factor of at least 100; and (3) comparing the measured MDC and/or aqueous concentration versus time AUC of the test composition in the test medium with the equilibrium concentration, and/or the aqueous concentration versus time AUC of the control composition. In conducting such a dissolution test, the amount of test composition or control composition used is an amount such that if all of the CETP inhibitor dissolved the CETP inhibitor concentration would be at least 10-fold and preferably at least 100-fold that of the equilibrium concentration. Indeed, for some extremely insoluble CETP inhibitors, in order to identify the MDC achieved it may be necessary to use an amount of test composition such that if all of the CETP inhibitor dissolved, the CETP inhibitor concentration would be 10,000-fold or even more, that of the equilibrium concentration of the CETP inhibitor.
The concentration of dissolved CETP inhibitor is typically measured as a function of time by sampling the test medium and plotting CETP inhibitor concentration in the test medium vs. time so that the MDC can be ascertained. The MDC is taken to be the maximum value of dissolved CETP inhibitor measured over the duration of the test.
To avoid large CETP inhibitor particulates which would give an erroneous determination, the test solution is either filtered or centrifuged. “Dissolved CETP inhibitor” is typically taken as that material that either passes a 0.45 μm syringe filter or, alternatively, the material that remains in the supernatant following centrifugation. Filtration can be conducted using a 13 mm, 0.45 μm polyvinylidine difluoride syringe filter sold by Scientific Resources under the trademark TITAN®. Centrifugation is typically carried out in a polypropylene microcentrifuge tube by centrifuging at 13,000 G for 60 seconds. Other similar filtration or centrifugation methods can be employed and useful results obtained. For example, using other types of microfilters may yield values somewhat higher or lower (±10-40%) than that obtained with the filter specified above but will still allow identification of preferred dispersions. […]

Solubility in water = format: physicochemical
Text: The invention is useful for CETP inhibitors which have sufficiently low aqueous solubility, low bioavailability or slow rate of absorption such that it is desirable to increase their concentration in an aqueous environment of use. Therefore, anytime one finds it desirable to raise the aqueous concentration of the CETP inhibitor in a use environment, the invention will find utility.

[2] = Table 9, Drug 2, receptor solution MFDS, TCmax 400 μg/mL (Examples 14-16: 100 μg/mL)
[3] = aqueous solubility determined at about 22° C. unless otherwise specified, read-out: solubility in water

## COC(=O)N(Cc1cc(C(F)(F)F)cc(C(F)(F)F)c1)[C@@H]1C[C@H](C2CC2)N(C(=O)OC(C)C)c2ccc(C(F)(F)F)cc21 [Control 1, [2R,4R]4-[(3,5-bis-trifluoromethyl-benzyl)-methoxycarbonyl-amino]-2-cyclopropyl-6-trifluoromethyl-3,4-dihydro-2H-quinoline-1-carboxylic acid isopropyl ester]
[1]; Table 2, Drug 1, MFDS, 37° C., 0 min, TCmax 100 μg/mL (Example 4: 500 μg/mL)
  Concentration: 0 ng/mL
[1]; Table 2, Drug 1, MFDS, 37° C., 4 min, TCmax 100 μg/mL
  Concentration: <100 ng/mL
[1]; Table 2, Drug 1, MFDS, 37° C., 10 min, TCmax 100 μg/mL (Example 4: 500 μg/mL)
  Concentration: 300 ng/mL
[1]; Table 2, Drug 1, MFDS, 37° C., 20 min, TCmax 100 μg/mL
  Concentration: 300 ng/mL
[1]; Table 2, Drug 1, MFDS, 37° C., 40 min, TCmax 100 μg/mL
  Concentration: 900 ng/mL
[1]; Table 2, Drug 1, MFDS, 37° C., 90 min, TCmax 100 μg/mL (Example 4: 500 μg/mL)
  Concentration: 800 ng/mL
[1]; Table 2, Drug 1, MFDS, 37° C., to 0 min, TCmax 100 μg/mL (Example 4: 500 μg/mL)
  AUC: 0 min-μg/mL
[1]; Table 2, Drug 1, MFDS, 37° C., to 4 min, TCmax 100 μg/mL
  AUC: <0.1 min-μg/mL
[1]; Table 2, Drug 1, MFDS, 37° C., to 10 min, TCmax 100 μg/mL (Example 4: 500 μg/mL)
  AUC: 1 min-μg/mL
[1]; Table 2, Drug 1, MFDS, 37° C., to 20 min, TCmax 100 μg/mL
  AUC: 4 min-μg/mL
[1]; Table 2, Drug 1, MFDS, 37° C., to 40 min, TCmax 100 μg/mL
  AUC: 16 min-μg/mL
[1]; Table 2, Drug 1, MFDS, 37° C., to 90 min, TCmax 100 μg/mL (Example 4: 500 μg/mL)
  AUC: 57 min-μg/mL
[1]; Table 3, area under the aqueous concentration versus time curve during the 90-minute test, Drug 1, MFDS, TCmax 100 μg/mL (Example 4: 500 μg/mL)
  AUC90: 57 min-μg/mL
[1]; Table 3, maximum concentration of Drug 1 in solution during the 90-minute test, MFDS, TCmax 100 μg/mL (Example 4: 500 μg/mL)
  Cmax, 90: 900 ng/mL

## CCOC(=O)N1c2ccc(C(F)(F)F)cc2[C@@H](N(Cc2cc(C(F)(F)F)cc(C(F)(F)F)c2)C(=O)OC)C[C@H]1CC [Control 3, [2R,4S]4-[(3,5-bis-trifluoromethyl-benzyl)-methoxycarbonyl-amino]-2-ethyl-6-trifluoromethyl-3,4-dihydro-2H-quinoline-1-carboxylic acid ethyl ester]
[1]; Table 8, Drug 2, receptor MFDS, 0 min, TCmax 400 μg/ml (Examples 14-16: 100 μg/ml)
  Concentration: 0 ng/mL
[1]; Table 8, Drug 2, receptor MFDS, 4 min, TCmax 400 μg/ml
  Concentration: <1000 ng/mL
[1]; Table 8, Drug 2, receptor MFDS, 10 min, TCmax 400 μg/ml (Examples 14-16: 100 μg/ml)
  Concentration: <1000 ng/mL
[1]; Table 8, Drug 2, receptor MFDS, 20 min, TCmax 400 μg/ml (Examples 14-16: 100 μg/ml)
  Concentration: <1000 ng/mL
[1]; Table 8, Drug 2, receptor MFDS, 40 min, TCmax 400 μg/ml (Examples 14-16: 100 μg/ml)
  Concentration: <1000 ng/mL
[1]; Table 8, Drug 2, receptor MFDS, 90 min, TCmax 400 μg/ml (Examples 14-16: 100 μg/ml)
  Concentration: <1000 ng/mL
[1]; Table 8, Drug 2, receptor MFDS, to 0 min, TCmax 400 μg/ml (Examples 14-16: 100 μg/ml)
  AUC: 0 min-μg/ml
[1]; Table 8, Drug 2, receptor MFDS, to 4 min, TCmax 400 μg/ml
  AUC: <4 min-μg/ml
[1]; Table 8, Drug 2, receptor MFDS, to 10 min, TCmax 400 μg/ml (Examples 14-16: 100 μg/ml)
  AUC: <10 min-μg/ml
[1]; Table 8, Drug 2, receptor MFDS, to 20 min, TCmax 400 μg/ml (Examples 14-16: 100 μg/ml)
  AUC: <20 min-μg/ml
[1]; Table 8, Drug 2, receptor MFDS, to 40 min, TCmax 400 μg/ml (Examples 14-16: 100 μg/ml)
  AUC: <40 min-μg/ml
[1]; Table 8, Drug 2, receptor MFDS, to 90 min, TCmax 400 μg/ml (Examples 14-16: 100 μg/ml)
  AUC: <90 min-μg/ml
[1]; [2]
  AUC90: <90 min-μg/mL
  Cmax, 90: <1000 ng/mL
[1]; Table 22: Drug 2, MFD solution
  AUC90: <90 min-μg/mL
  Cmax, 90: <1000 ng/mL

## COC(=O)N(Cc1cc(C(F)(F)F)cc(C(F)(F)F)c1)[C@@H]1C[C@H](C2CC2)N(C(=O)OC(C)C)c2ccc(C(F)(F)F)cc21 [Drug 1, [2R,4R]4-[(3,5-bis-trifluoromethyl-benzyl)-methoxycarbonyl-amino]-2-cyclopropyl-6-trifluoromethyl-3,4-dihydro-2H-quinoline-1-carboxylic acid isopropyl ester]
Solubility in water; [3]
  solubility: < 1 µg/mL

## CCOC(=O)N1c2ccc(C(F)(F)F)cc2[C@@H](N(Cc2cc(C(F)(F)F)cc(C(F)(F)F)c2)C(=O)OC)C[C@H]1CC [Drug 2, [2R,4S]4-[(3,5-bis-trifluoromethyl-benzyl)-methoxycarbonyl-amino]-2-ethyl-6-trifluoromethyl-3,4-dihydro-2H-quinoline-1-carboxylic acid ethyl ester]
Solubility in water; 22 °C, crystalline drug, read-out: solubility of crystalline Drug 2 (accurate measurements)
  solubility: ~0.01 µg/mL (≈ 0.0167 µM)
Solubility in water; [3]
  solubility: < 1 µg/mL

## CCCOC(=O)N1c2ccc(C(F)(F)F)cc2[C@@H](N(Cc2cc(C(F)(F)F)cc(C(F)(F)F)c2)C(=O)OC)C[C@H]1CC [Drug 3, [2R,4S]4-[(3,5-bis-trifluoromethyl-benzyl)-methoxycarbonyl-amino]-2-ethyl-6-trifluoromethyl-3,4-dihydro-2H-quinoline-1-carboxylic acid propyl ester]
Solubility in water; [3]
  solubility: < 0.1 µg/mL

## CCOC(=O)N1c2cc(OC)c(OC)cc2[C@@H](N(Cc2cc(C(F)(F)F)cc(C(F)(F)F)c2)C(=O)OC)C[C@H]1C [Drug 4, [2R,4S]4-[(3,5-bis-trifluoromethyl-benzyl)-methoxycarbonyl-amino]-6,7-dimethoxy-2-methyl-3,4-dihydro-2H-quinoline-1-carboxylic acid ethyl ester]
Solubility in water; [3]
  solubility: < 1 µg/mL

## CCOC(=O)N1c2cc(CC)c(CC)cc2[C@@H](N(Cc2cc(C(F)(F)F)cc(C(F)(F)F)c2)C(=O)OC)C[C@H]1C [Drug 5, [2R,4S]4-[(3,5-bis-trifluoromethyl-benzyl)-methoxycarbonyl-amino]-6,7-diethyl-2-methyl-3,4-dihydro-2H-quinoline-1-carboxylic acid ethyl ester]
Solubility in water; [3]
  solubility: < 1 µg/mL

## CCOC(=O)N1c2cc3c(cc2[C@@H](N(Cc2cc(C(F)(F)F)cc(C(F)(F)F)c2)C(=O)OC)C[C@H]1C)CCC3 [Drug 6, [2R,4S]4-[(3,5-bis-trifluoromethyl-benzyl)-methoxycarbonyl-amino]-2-methyl-2,3,4,6,7,8-hexahydro-cyclopenta[g]quinoline-1-carboxylic acid ethyl ester]
Solubility in water; [3]
  solubility: < 1 µg/mL

## CC[C@@H]1C[C@H](N(Cc2cc(C(F)(F)F)cc(C(F)(F)F)c2)C(C)=O)c2cc(C(F)(F)F)ccc2N1C(=O)OC(C)C [Drug 7, [2R,4S]4-[acetyl-(3,5-bis-trifluoromethyl-benzyl)-amino]-2-ethyl-6-trifluoromethyl-3,4-dihydro-2H-quinoline-1-carboxylic acid isopropyl ester]
Solubility in water; [3]
  solubility: < 1 µg/mL

## COC(=O)N(Cc1cc(C(F)(F)F)cc(C(F)(F)F)c1)[C@H]1C[C@@H](C2CC2)N(C(=O)OC(C)C)c2ccc(C(F)(F)F)cc21 [Drug 8, [2S,4S]4-[(3,5-bis-trifluoromethyl-benzyl)-methoxycarbonyl-amino]-2-cyclopropyl-6-trifluoromethyl-3,4-dihydro-2H-quinoline-1-carboxylic acid isopropyl ester]
Solubility in water; [3]
  solubility: < 1 µg/mL

## CC(C)c1cc2c(c(-c3ccc(F)cc3)c1[C@@H](F)c1ccc(C(F)(F)F)cc1)[C@@H](O)CC1(CCC1)C2 [Drug 10, (4′S)-5′-(4-fluorophenyl)-6′-[(S)-fluoro[4-(trifluoromethyl)phenyl]methyl]-3′,4′-dihydro-7′-(1-methylethyl)-spiro[cyclobutane-1,2′(1′H)-naphthalen]-4′-ol]
Solubility in water; [3]
  solubility: < 1 µg/mL
